Laboratory results published in ChEMBL document CHEMBL5614421, “Structure-activity relationship study of Pseudellone C as anti-glioma agents by targeting TNF/TNFR signaling pathway” (Eur J Med Chem, 2024).
Active and inactive are the calls of the source. The calls are words filed in the database; no cut-off is given here.

Key:
LN-229 [1] = experiment: Induction of apoptosis in human LN-229 cells assessed as early apoptotic cells at 20 uM incubated for 24 hrs by Annexin V-APC/7-AAD staining based flow cytometric analysis (reference value: 0.45 %); type: functional
U-87 MG [2] = experiment: Induction of apoptosis in human U-87 MG cells assessed as upregulation of TNF-alpha gene expression incubated for 24 hrs by transcriptome sequencing analysis; type: functional, cell-based; details: U-87MG ATCC
U-87 MG [3] = experiment: Induction of apoptosis in human U-87 MG cells assessed as late apoptotic cells at 20 uM incubated for 24 hrs by Annexin V-APC/7-AAD staining based flow cytometric analysis (reference value: 7.7 %); type: functional, U-87MG ATCC
LN-229 [4] = experiment: Induction of apoptosis in human LN-229 cells assessed as necrotic cells at 20 uM incubated for 48 hrs by Annexin V-APC/7-AAD staining based flow cytometric analysis (reference value: 0.7 %); type: functional
U-87 MG [5] = experiment: Induction of apoptosis in human U-87 MG cells assessed as late apoptotic cells at 20 uM incubated for 24 hrs in presence of R7050 by Annexin V-APC/7-AAD staining based flow cytometric analysis (reference value: 7.7 %); type: functional, U-87MG ATCC
U-87 MG [6] = experiment: Induction of apoptosis in human U-87 MG cells assessed as late apoptotic cells at 20 uM incubated for 12 hrs by Annexin V-APC/7-AAD staining based flow cytometric analysis (reference value: 3.44 %); type: functional, U-87MG ATCC
U-87 MG [7] = experiment: Induction of apoptosis in human U-87 MG cells assessed as reduction in Bcl-2/Bax ratio at 5 to 20 uM incubated for 24 hrs by Western blot analysis; type: functional, cell-based; details: U-87MG ATCC, dose 5-20 µM
U-87 MG [8] = experiment: Induction of apoptosis in human U-87 MG cells assessed as early apoptotic cells at 20 uM incubated for 12 hrs by Annexin V-APC/7-AAD staining based flow cytometric analysis (reference value: 0.94 %); type: functional, U-87MG ATCC
LN-229 [9] = experiment: Induction of apoptosis in human LN-229 cells assessed as necrotic cells at 20 uM incubated for 12 hrs by Annexin V-APC/7-AAD staining based flow cytometric analysis (reference value: 0.7 %); type: functional
LN-229 [10] = experiment: Induction of apoptosis in human LN-229 cells assessed as late apoptotic cells at 20 uM incubated for 48 hrs by Annexin V-APC/7-AAD staining based flow cytometric analysis (reference value: 5.1 %); type: functional
LN-229 [11] = experiment: Induction of apoptosis in human LN-229 cells assessed as late apoptotic cells at 20 uM incubated for 24 hrs by Annexin V-APC/7-AAD staining based flow cytometric analysis (reference value: 3.56 %); type: functional
U-87 MG [12] = experiment: Induction of apoptosis in human U-87 MG cells assessed as late apoptotic cells at 10 uM incubated for 24 hrs by Annexin V-APC/7-AAD staining based flow cytometric analysis (reference value: 4.22 %); type: functional, U-87MG ATCC
LN-229 [13] = experiment: Induction of apoptosis in human LN-229 cells assessed as early apoptotic cells at 20 uM incubated for 12 hrs by Annexin V-APC/7-AAD staining based flow cytometric analysis (reference value: 2.46 %); type: functional
U-87 MG [14] = experiment: Antiproliferative activity against human U-87 MG cells assessed as inhibition of cell growth incubated for 68 hrs by CCK-8 assay; type: functional, cell-based, U-87MG ATCC
U-87 MG [15] = experiment: Induction of apoptosis in human U-87 MG cells assessed as necrotic cells at 20 uM incubated for 24 hrs by Annexin V-APC/7-AAD staining based flow cytometric analysis (reference value: 1 %); type: functional, U-87MG ATCC
LN-229 [16] = experiment: Induction of apoptosis in human LN-229 cells assessed as viable cells at 20 uM incubated for 24 hrs by Annexin V-APC/7-AAD staining based flow cytometric analysis (reference value: 95.4 %); type: functional; details: read-out: Activity
LN-229 [17] = experiment: Induction of apoptosis in human LN-229 cells assessed as early apoptotic cells at 20 uM incubated for 24 hrs by Annexin V-APC/7-AAD staining based flow cytometric analysis (reference value: 2.46 %); type: functional
U-87 MG [18] = experiment: Induction of apoptosis in human U-87 MG cells assessed as late apoptotic cells at 20 uM incubated for 24 hrs by Annexin V-APC/7-AAD staining based flow cytometric analysis (reference value: 4.22 %); type: functional, U-87MG ATCC
LN-229 [19] = experiment: Induction of apoptosis in human LN-229 cells at 20 uM incubated for 24 hrs in presence of R7050 by Annexin V-APC/7-AAD staining based flow cytometric analysis relative to control; type: functional
LN-229 [20] = experiment: Induction of apoptosis in human LN-229 cells assessed as late apoptotic cells at 20 uM incubated for 24 hrs by Annexin V-APC/7-AAD staining based flow cytometric analysis (reference value: 4.86 %); type: functional
U-87 MG [21] = experiment: Induction of apoptosis in human U-87 MG cells assessed as viable cells at 5 uM incubated for 24 hrs by Annexin V-APC/7-AAD staining based flow cytometric analysis (reference value: 94 %); type: functional, U-87MG ATCC; details: read-out: Activity
U-87 MG [22] = experiment: Induction of apoptosis in human U-87 MG cells assessed as necrotic cells at 5 uM incubated for 24 hrs by Annexin V-APC/7-AAD staining based flow cytometric analysis (reference value: 0.21 %); type: functional, U-87MG ATCC
LN-229 [23] = experiment: Induction of apoptosis in human LN-229 cells assessed as early apoptotic cells at 20 uM incubated for 24 hrs in presence of R7050 by Annexin V-APC/7-AAD staining based flow cytometric analysis (reference value: 0.91 %); type: functional
U-87 MG [24] = experiment: Induction of apoptosis in human U-87 MG cells at 20 uM incubated for 24 hrs by Annexin V-APC/7-AAD staining based flow cytometric analysis relative to control; type: functional, U-87MG ATCC
LN-229 [25] = experiment: Induction of apoptosis in human LN-229 cells assessed as necrotic cells at 10 uM incubated for 24 hrs by Annexin V-APC/7-AAD staining based flow cytometric analysis (reference value: 0.56 %); type: functional
U-87 MG [26] = experiment: Induction of apoptosis in human U-87 MG cells assessed as necrotic cells at 20 uM incubated for 24 hrs in presence of R7050 by Annexin V-APC/7-AAD staining based flow cytometric analysis (reference value: 3.85 %); type: functional, U-87MG ATCC
U-87 MG [27] = experiment: Induction of apoptosis in human U-87 MG cells assessed as necrotic cells at 20 uM incubated for 24 hrs by Annexin V-APC/7-AAD staining based flow cytometric analysis (reference value: 3.85 %); type: functional, U-87MG ATCC
LN-229 [28] = experiment: Induction of apoptosis in human LN-229 cells assessed as upregulation of cleaved caspase-3 expression incubated for 24 hrs by Western blot analysis; type: functional, cell-based
LN-229 [29] = experiment: Induction of apoptosis in human LN-229 cells assessed as early apoptotic cells at 5 uM incubated for 24 hrs by Annexin V-APC/7-AAD staining based flow cytometric analysis (reference value: 0.45 %); type: functional
U-87 MG [30] = experiment: Induction of apoptosis in human U-87 MG cells assessed as viable cells at 20 uM incubated for 24 hrs by Annexin V-APC/7-AAD staining based flow cytometric analysis (reference value: 94 %); type: functional, U-87MG ATCC; details: read-out: Activity
LN-229 [31] = experiment: Induction of apoptosis in human LN-229 cells assessed as viable cells at 20 uM incubated for 48 hrs by Annexin V-APC/7-AAD staining based flow cytometric analysis (reference value: 91.7 %); type: functional; details: read-out: Activity
LN-229 [32] = experiment: Induction of apoptosis in human LN-229 cells assessed as early apoptotic cells at 10 uM incubated for 24 hrs by Annexin V-APC/7-AAD staining based flow cytometric analysis (reference value: 0.45 %); type: functional

Question: For `CCCCCCCNC(=O)[C@H](Cc1c[nH]c2ccccc12)NC(=O)C(C)(c1c[nH]c2ccccc12)c1c[nH]c2ccccc12`, which Activity (LN-229 [1]) is on record?
Answer: 13.8%

Question: And the Activity (U-87 MG [2])?
Answer: Active

Question: And the Activity (U-87 MG [3])?
Answer: 10%

Question: And the Activity (LN-229 [4])?
Answer: 1.9%

Question: And the Activity (U-87 MG [5])?
Answer: 2.87%

Question: What about the Activity (U-87 MG [6]) of the same compound?
Answer: 3.62%

Question: What about the Activity (U-87 MG [7]) of the same compound?
Answer: Active

Question: What about the Activity (U-87 MG [8]) of the same compound?
Answer: 1.53%

Question: What about the Activity (LN-229 [9]) of the same compound?
Answer: 1.45%

Question: What about the Activity (LN-229 [10]) of the same compound?
Answer: 41.9%

Question: What about the Activity (LN-229 [11]) of the same compound?
Answer: 4.99%

Question: What about the Activity (U-87 MG [12]) of the same compound?
Answer: 6.16%

Question: What about the Activity (LN-229 [13]) of the same compound?
Answer: 1.76%

Question: And the IC50 (U-87 MG [14])?
Answer: 8.2 µM

Question: What about the Activity (U-87 MG [15]) of the same compound?
Answer: 1.37%

Question: What about the viability at 20 µM (LN-229 [16]) of the same compound?
Answer: 79.8%

Question: What about the Activity (LN-229 [17]) of the same compound?
Answer: 13%

Question: What about the Activity (U-87 MG [18]) of the same compound?
Answer: 11.6%

Question: And the Activity (LN-229 [19])?
Answer: 22.79%

Question: And the Activity (LN-229 [20])?
Answer: 7.62%

Question: And the viability at 5 µM (U-87 MG [21])?
Answer: 92.9%

Question: And the Activity (U-87 MG [22])?
Answer: 0.14%

Question: What about the Activity (LN-229 [23]) of the same compound?
Answer: 1.48%

Question: And the Activity (U-87 MG [24])?
Answer: 24.89%

Question: What about the Activity (LN-229 [25]) of the same compound?
Answer: 1.95%

Question: What about the Activity (U-87 MG [26]) of the same compound?
Answer: 0.86%

Question: What about the Activity (U-87 MG [27]) of the same compound?
Answer: 8.66%

Question: And the Activity (LN-229 [28])?
Answer: Dose-Dependent Effect

Question: And the Activity (LN-229 [29])?
Answer: 0.82%

Question: What about the viability at 20 µM (U-87 MG [30]) of the same compound?
Answer: 74.3%

Question: What about the viability at 20 µM (LN-229 [31]) of the same compound?
Answer: 37.7%

Question: What about the Activity (LN-229 [32]) of the same compound?
Answer: 3.58%
